What all share (assay): relative viability (nuclei count vs DMSO), 5 days (fraction); higher = more cells survive
Compound in assay [1]: CC1(C)CCC(CN2CCN(c3ccc(C(=O)NS(=O)(=O)c4ccc(NCC5CCOCC5)c([N+](=O)[O-])c4)c(Oc4cnc5[nH]ccc5c4)c3)CC2)=C(c2ccc(Cl)cc2)C1 [Venetoclax]
In a few lines:
(§1)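 Hoechst staining, done together with fixation and permeabilisation, marked nuclei for 4× imaging and MetaXpress counting. This followed 5 days without medium change after lung cancer cell lines, kept overnight at 37 °C in 1536-well plates, were pinned with five library-drug doses (not always all listed) spaced by √10 on vehicle-anchored plates. Viability is the ratio of treated-well to vehicle-well nuclei, expressed as a median across plates. Plates passed only at control CV below 25% with at least one doubling.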

Compound in assay [2]: Cn1cnc2c(F)c(Nc3ccc(Br)cc3Cl)c(C(=O)NOCCO)cc21 [Selumetinib]
In a few lines:
as §1

Compound in assay [3]: Cn1cnc2c(F)c(Nc3ccc(Br)cc3Cl)c(C(=O)NOCCO)cc21 [Selumetinib] + CC(=O)c1c(C)c2cnc(Nc3ccc(N4CCNCC4)cn3)nc2n(C2CCCC2)c1=O [Palbociclib] (partner 0.5 µM)
In a few lines:
(§2)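 Lung cancer cell lines were seeded in 1536-well plates and dosed by pin tool the next day, with either a single drug or a fixed anchor-drug dose combined with five library-drug doses (not always all listed) spaced in √10 steps. Five days later, one step fixed the cells and stained their nuclei (final 0.05% Triton X-100, 1% formaldehyde, 1 ug/ml Hoechst), and nuclei were counted on 4× images. Relative viability is the nuclei count in treated wells divided by the count in vehicle wells, and each value is the median of duplicate plates.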

Compound in assay [4]: CC1(C)CCC(CN2CCN(c3ccc(C(=O)NS(=O)(=O)c4ccc(NCC5CCOCC5)c([N+](=O)[O-])c4)c(Oc4cnc5[nH]ccc5c4)c3)CC2)=C(c2ccc(Cl)cc2)C1 [Venetoclax] + COc1cc2c(Oc3ccc(NC(=O)C4(C(=O)Nc5ccc(F)cc5)CC4)cc3F)ccnc2cc1OCCCN1CCOCC1 [Foretinib] (partner 0.25 µM)
In a few lines: as §2

For the cell line UMC-11, the relative viability came to 0.958 in assay [1] (0.01 µM); 1 in assay [1] (0.03162 µM); 0.901 in assay [1] (0.1 µM); 0.944 in assay [1] (0.3162 µM); 0.927 in assay [1] (1 µM); 0.936 in assay [2] (0.02 µM). The relative viability amounted to 0.909 in assay [2] (0.06325 µM); 1.01 in assay [2] (0.2 µM); 1.04 in assay [2] (0.6325 µM); 0.309 in assay [3] (first compound 0.02 µM); 0.37 in assay [3] (first compound 0.06325 µM); 0.306 in assay [3] (first compound 0.2 µM). Moreover, the relative viability amounted to 0.34 in assay [3] (first compound 0.6325 µM); 1.08 in assay [4] (first compound 0.01 µM); 1.05 in assay [4] (first compound 0.03162 µM); 1.01 in assay [4] (first compound 0.1 µM); 0.961 in assay [4] (first compound 0.3162 µM); 0.913 in assay [4] (first compound 1 µM).
